Measurements taken from publication PMC8557901 (Microbiology Spectrum, 2021).

Tests used:
[1] = MTT cell viability assay, murine primary hepatocytes; format: cell-based, BALB/c mice; settings: BALB/c, mouse
Description: Primary human hepatocytes were isolated from liver segments obtained from adult patients undergoing partial hepatectomy (Service de Chirurgie Digestive, Hépato-Bilio Pancréatique, Hôpital Pitié Salpêtrière, Paris, France). Primary simian hepatocytes were isolated from liver segments collected from healthy Macaca fascicularis monkeys from CEA, Fontenay aux Roses, France. All hepatocytes were obtained using collagenase perfusion as previously described ([40]). Simian hepatocytes were immediately cryopreserved with a Nicool-Freezal controlled rate freezer (Air Liquide Santé, Marne la Vallée, France) and then used when needed after fast thawing at 37°C. Primary murine hepatocytes were isolated from liver segments collected from BALB/c mice. Human and murine hepatocytes were used directly after their isolation. Cells were seeded in 96-well plates (Falcon; Becton Dickinson Labware Europe, France) coated with collagen I (BD Bioscience, USA) at a density of 80,000 cells per well. […]
The toxicity of M1 toward primary hepatocytes and HepG2-CD81 cells was evaluated through the MTT {[3-(4,5-dimethyl-2-thiazolyl)-2,5-diphenyl-2H-tetrazolium bromide]} test ([42]). […] Then, MTT was replaced by a mixture of DMSO-ethanol (1:1) to dissolve formazan crystals and the absorbance was read at 540 nm on a FlexStation plate reader.

[2] = system: P. falciparum strain K1 in RBC; assay: In vitro chemosensitivity assay, blood stage P. falciparum K1 (SYBR green I); format: cell-based; settings: Plasmodium falciparum, K1; erythrocytic stage, 72 h; read-out: EC50 (μM) for P. falciparum strain K1 in RBC
Description: Maintenance in continuous culture was done as described previously by Trager and Jensen ([46]). Cultures were maintained in fresh A+ human erythrocytes (EFS [French Blood Bank]) at 2.5% hematocrit in complete medium (RPMI 1640 with 25 mM HEPES, 25 mM NaHCO3, 10% A+ human serum) at 37°C under a reduced-O2 atmosphere (gas mixture of 10% O2, 5% CO2, and 85% N2). Parasitemia was maintained daily between 1% and 3%. The P. falciparum drug susceptibility test was carried out by comparing quantities of DNA in treated and control cultures of parasites in human erythrocytes according to a SYBR green I fluorescence-based method ([50]) using a 96-well fluorescence plate reader. Compounds, previously dissolved in DMSO (final concentration, less than 0.5% vol/vol), were incubated in a total assay volume of 200 μl of synchronized culture suspension (2% hematocrit and 0.4% parasitemia) for 72 h in a humidified atmosphere (85% N2, 10% O2, and 5% CO2) at 37°C in 96-well flat-bottom plates. Duplicate assays were performed for each sample. After incubation, plates were frozen at −20°C for 24 h. Then, the frozen plates were thawed for 1 h at 37°C. Fifteen microliters of each sample was transferred to 96-well flat-bottom black plates (Greiner Bio-one) already containing 15 μl of the SYBR green I lysis buffer (2× SYBR green I, 20 mM Tris base, pH 7.5, 20 mM EDTA, 0.008% [wt/vol] saponin, 0.08% [wt/vol] Triton X-100). […] Plates were incubated for 15 min at 37°C and then read on a Tecan Infinite F-200 spectrophotometer with excitation and emission wavelengths at 485 and 535 nm, respectively. […] EC50K1 values represent the mean values calculated from three independent experiments.

[3] = parameters: method as in PMID 25791675; settings: cited from earlier work

SMILES: Cc1ccc(-c2cc3nc(NC(C)(C)C)[nH]c(=O)c3s2)cc1 [Metabolite M1, 2-(tert-Butylamino)-6-(p-tolyl)thieno[3,2-d]pyrimidin-4(3H)-one]
- CC50 at 2 days [1]: > 60 µM
- EC50 [2]: 0.045 µM
- Ames test [3]: negative
